US20250243196A1, “CITRON KINASE INHIBITORS” (The Cleveland Clinic Foundation, priority 2021, published 2025)

Biological target: Citron kinase (Homo sapiens (Human), UniProt O14578)
Assay: Radiometric citron kinase assay (Eurofins Cat #16-040KP)
Assay type: biochemical
Conditions: mean of at least two independent assays; read-out: Radiometric CitK IC50
Excerpt: In some embodiments, the step of contacting the sample with the compound comprises administering the compound to a subject (e.g., a subject) suffering from cancer. Methods of determining kinase inhibition are well known in the art. For example, kinase activity of an enzyme and the inhibitory capacity of a test compound can be determined by measuring enzyme specific phosphorylation of a substrate. Commercial assays and kits can be employed. For example, kinase inhibition can be determined using a radiometric binding assay, such as using KinaseProfiler™ technology (Eurofins Discovery). This assay method directly detects product formation without the use of modified substrates or coupling enzymes. Test compounds are incubated with kinase, substrate, required cofactors and radioisotope labeled ATP. Following incubation, unreacted radioactive ATP is removed by washing and incorporation of the radiolabeled phosphate into the kinase substrate is assayed to detect phosphoryltransferase activity, which is directly proportional to the amount of phosphorylated substrate. Inhibition of the kinase by a kinase inhibitor prevents phosphorylation of the substrate and thereby limits the incorporation of radiolabeled phosphate. Such an assay is compatible with a microwell assay format, allowing simultaneous determination of IC50 of multiple compounds.
Compounds were screened for biochemical kinase activity (Eurofins Discovery, France) using one of two assays. […] All values in Table 1 are the mean of at least two independent assays.

Chain of Citron kinase (O14578 whole entry): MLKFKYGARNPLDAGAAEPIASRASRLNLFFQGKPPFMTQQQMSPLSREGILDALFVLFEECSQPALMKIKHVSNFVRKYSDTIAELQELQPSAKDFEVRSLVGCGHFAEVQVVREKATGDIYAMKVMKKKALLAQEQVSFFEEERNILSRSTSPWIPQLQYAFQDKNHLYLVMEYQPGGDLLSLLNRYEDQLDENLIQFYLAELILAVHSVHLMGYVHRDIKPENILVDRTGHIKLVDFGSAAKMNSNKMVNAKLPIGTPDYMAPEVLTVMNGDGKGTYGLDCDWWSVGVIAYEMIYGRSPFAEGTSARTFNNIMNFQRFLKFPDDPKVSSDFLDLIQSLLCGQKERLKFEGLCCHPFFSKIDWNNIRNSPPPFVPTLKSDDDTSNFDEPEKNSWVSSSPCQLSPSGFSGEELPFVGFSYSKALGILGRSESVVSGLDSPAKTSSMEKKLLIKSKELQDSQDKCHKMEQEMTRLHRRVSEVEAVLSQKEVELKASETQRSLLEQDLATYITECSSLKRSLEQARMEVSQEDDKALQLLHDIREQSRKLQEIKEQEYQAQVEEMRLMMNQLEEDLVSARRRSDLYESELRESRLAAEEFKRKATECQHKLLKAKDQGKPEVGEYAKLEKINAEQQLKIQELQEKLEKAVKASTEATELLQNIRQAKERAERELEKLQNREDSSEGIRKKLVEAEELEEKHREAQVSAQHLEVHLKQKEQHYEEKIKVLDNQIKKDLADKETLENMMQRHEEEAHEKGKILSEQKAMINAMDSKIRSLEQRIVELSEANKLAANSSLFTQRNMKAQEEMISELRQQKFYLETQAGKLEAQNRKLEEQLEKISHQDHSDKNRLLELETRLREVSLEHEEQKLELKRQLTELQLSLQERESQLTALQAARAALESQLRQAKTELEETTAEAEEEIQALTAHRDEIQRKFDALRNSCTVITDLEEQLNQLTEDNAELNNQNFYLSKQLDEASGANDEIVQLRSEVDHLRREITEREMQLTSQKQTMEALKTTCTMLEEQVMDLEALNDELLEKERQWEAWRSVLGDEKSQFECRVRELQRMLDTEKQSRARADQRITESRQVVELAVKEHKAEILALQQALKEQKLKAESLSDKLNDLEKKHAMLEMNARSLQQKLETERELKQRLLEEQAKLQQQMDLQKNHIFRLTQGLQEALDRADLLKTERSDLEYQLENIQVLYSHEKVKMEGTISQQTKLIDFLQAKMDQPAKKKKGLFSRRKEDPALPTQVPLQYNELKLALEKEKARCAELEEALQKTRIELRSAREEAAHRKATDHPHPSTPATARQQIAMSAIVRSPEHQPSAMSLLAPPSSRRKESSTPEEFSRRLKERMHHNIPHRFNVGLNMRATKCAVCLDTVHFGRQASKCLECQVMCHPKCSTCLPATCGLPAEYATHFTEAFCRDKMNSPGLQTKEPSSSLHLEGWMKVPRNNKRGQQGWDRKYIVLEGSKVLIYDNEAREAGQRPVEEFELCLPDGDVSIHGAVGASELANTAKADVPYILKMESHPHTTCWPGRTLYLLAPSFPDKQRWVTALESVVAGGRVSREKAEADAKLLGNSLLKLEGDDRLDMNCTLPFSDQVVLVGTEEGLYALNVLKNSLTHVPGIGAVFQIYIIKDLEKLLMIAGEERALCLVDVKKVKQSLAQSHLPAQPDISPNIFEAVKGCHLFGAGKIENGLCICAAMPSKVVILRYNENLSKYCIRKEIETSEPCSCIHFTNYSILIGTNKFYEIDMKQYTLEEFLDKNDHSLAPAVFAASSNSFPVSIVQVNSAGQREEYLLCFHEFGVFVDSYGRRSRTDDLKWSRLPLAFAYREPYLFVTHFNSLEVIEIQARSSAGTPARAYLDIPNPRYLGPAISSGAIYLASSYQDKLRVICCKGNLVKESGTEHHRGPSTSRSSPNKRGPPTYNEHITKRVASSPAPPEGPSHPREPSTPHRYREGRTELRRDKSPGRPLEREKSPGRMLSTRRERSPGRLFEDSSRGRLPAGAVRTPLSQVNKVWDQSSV

| Compound | IC50 |
| --- | --- |
| CNCC(=O)Nc1ccc(-c2ccnc3[nH]ccc23)cc1 [Compound F-2, N-(4-(1H-pyrrolo[2,3-b]pyridin-4-yl)phenyl)-2-(methylamino)acetamide] | 728 nM |
| CN(C)CC(=O)Nc1ccc(-c2ccnc3[nH]ccc23)cc1 [Compound F-3, 2-(Dimethylamino)-N-[4-(1H-pyrrolo[2,3-b]pyridin-4-yl)phenyl]acetamide] | 1060 nM |
| C[C@H](N)C(=O)Nc1ccc(-c2ccnc3[nH]ccc23)cc1 [Compound F-4, (2S)-2-Amino-N-[4-(1H-pyrrolo[2,3-b]pyridin-4-yl)phenyl]propenamide] | 3000 nM |
| C[C@@H](N)C(=O)Nc1ccc(-c2ccnc3[nH]ccc23)cc1 [Compound F-5, (2R)-2-Amino-N-[4-(1H-pyrrolo[2,3-b]pyridin-4-yl)phenyl]propenamide] | 806 nM |
| CC[C@H](C)[C@H](N)C(=O)Nc1ccc(-c2ccnc3[nH]ccc23)cc1 [Compound F-10, (2S,3S)-2-Amino-3-methyl-N-[4-(1H-pyrrolo[2,3-b]pyridin-4-yl)phenyl]pentanamide] | 91.9 nM |
| CC[C@@H](C)[C@@H](N)C(=O)Nc1ccc(-c2ccnc3[nH]ccc23)cc1 [Compound F-11, (2R,3R)-2-Amino-3-methyl-N-[4-(1H-pyrrolo[2,3-b]pyridin-4-yl)phenyl]pentanamide] | 315 nM |
| CCC[C@@H](N)C(=O)Nc1ccc(-c2ccnc3[nH]ccc23)cc1 [Compound F-14, (2R)-2-Amino-N-[4-(1H-pyrrolo[2,3-b]pyridin-4-yl)phenyl]pentanamide] | 69.6 nM |
| NC(CC(F)(F)F)C(=O)Nc1ccc(-c2ccnc3[nH]ccc23)cc1 (stereo not drawn) [Compound F-22, 2-Amino-4,4,4-trifluoro-N-[4-(1H-pyrrolo[2,3-b]pyridin-4-yl)phenyl]butanamide] | 554 nM |
| NC(C(=O)Nc1ccc(-c2ccnc3[nH]ccc23)cc1)C1(C(F)(F)F)CC1 (stereo not drawn) [Compound F-23, 2-Amino-N-[4-(1H-pyrrolo[2,3-b]pyridin-4-yl)phenyl]-2-[1-(trifluoromethyl)cyclopropyl]acetamide] | 172 nM |
| N[C@H](CCC(F)(F)F)C(=O)Nc1ccc(-c2ccnc3[nH]ccc23)cc1 [Compound F-24, (2R)-2-Amino-5,5,5-trifluoro-N-[4-(1H-pyrrolo[2,3-b]pyridin-4-yl)phenyl]pentanamide] | 66.7 nM |
| COCCC(N)C(=O)Nc1ccc(-c2ccnc3[nH]ccc23)cc1 (stereo not drawn) [Compound F-26, 2-Amino-4-methoxy-N-[4-(1H-pyrrolo[2,3-b]pyridin-4-yl)phenyl]butanamide] | 2470 nM |
| CC(O)[C@H](N)C(=O)Nc1ccc(-c2ccnc3[nH]ccc23)cc1 (stereo partly drawn) [Compound F-29, (2S)-2-Amino-3-hydroxy-N-[4-(1H-pyrrolo[2,3-b]pyridin-4-yl)phenyl]butanamide] | 778 nM |
| CC(O)[C@@H](N)C(=O)Nc1ccc(-c2ccnc3[nH]ccc23)cc1 (stereo partly drawn) [Compound F-30, (2R)-2-Amino-3-hydroxy-N-[4-(1H-pyrrolo[2,3-b]pyridin-4-yl)phenyl]butanamide] | 218 nM |
| CC(C)(O)[C@@H](N)C(=O)Nc1ccc(-c2ccnc3[nH]ccc23)cc1 [Compound F-31, (2R)-2-Amino-3-hydroxy-3-methyl-N-[4-(1H-pyrrolo[2,3-b]pyridin-4-yl)phenyl]butanamide] | 52.4 nM |
| CCN[C@H](CC(C)C)C(=O)Nc1ccc(-c2ccnc3[nH]ccc23)cc1 [Compound F-43, (2R)-2-(Ethylamino)-4-methyl-N-[4-(1H-pyrrolo[2,3-b]pyridin-4-yl)phenyl]pentanamide] | 209 nM |
| CC(C)C[C@@H](NC1CC1)C(=O)Nc1ccc(-c2ccnc3[nH]ccc23)cc1 [Compound F-44, (2R)-2-(Cyclopropylamino)-4-methyl-N-[4-(1H-pyrrolo[2,3-b]pyridin-4-yl)phenyl]pentanamide] | 555 nM |
| CC(C)C[C@@H](NCC1CC1)C(=O)Nc1ccc(-c2ccnc3[nH]ccc23)cc1 [Compound F-45, (2R)-2-(Cyclopropymethylamino)-4-methyl-N-[4-[1H-pyrrolo[2,3-b]pyridin-4-yl]phenyl]pentanamide] | 683 nM |
| COCCN[C@H](CC(C)C)C(=O)Nc1ccc(-c2ccnc3[nH]ccc23)cc1 [Compound F-46, (2R)-2-(2-Methoxyethylamino)-4-methyl-N-[4-(1H-pyrrolo[2,3-b]pyridin-4-yl)phenyl]pentanamide] | 1260 nM |

| Compound | IC50 |
| --- | --- |
| CC(C)C[C@@H](NCC(F)(F)F)C(=O)Nc1ccc(-c2ccnc3[nH]ccc23)cc1 [Compound F-47, (2R)-4-Methyl-N-[4-(1H-pyrrolo[2,3-b]pyridin-4-yl)phenyl]-2-(2,2,2-trifluoroethylamino)pentanamide] | 3000 nM |
| Cc1cc2c(-c3ccc(NC(=O)[C@H](N)C(C)(C)C)cc3)ccnc2[nH]1 [Compound F-50, (2R)-2-Amino-3,3-dimethyl-N-[4-(2-methyl-1H-pyrrolo[2,3-b]pyridin-4-yl)phenyl]butanamide] | 59 nM |
| Cc1cc2c(-c3ccc(NC(=O)[C@@H](N)C(C)(C)C)cc3)ccnc2[nH]1 [Compound F-51, (2S)-2-Amino-3,3-dimethyl-N-[4-(2-methyl-1H-pyrrolo[2,3-b]pyridin-4-yl)phenyl]butanamide] | 366 nM |
| Cc1cc2c(-c3ccc(NC(=O)[C@H](N)CC(C)(C)C)cc3)ccnc2[nH]1 [Compound F-52, (2R)-2-Amino-4,4-dimethyl-N-[4-(2-methyl-1H-pyrrolo[2,3-b]pyridin-4-yl)phenyl]pentanamide] | 9.1 nM |
| CC(C)(C)[C@@H](N)C(=O)Nc1ccc(-c2ccnc3[nH]c(C4CC4)cc23)cc1 [Compound F-54, (2R)-2-Amino-N-[4-(2-cyclopropyl-1H-pyrrolo[2,3-b]pyridin-4-yl)phenyl]-3,3-dimethyl-butanamide] | 35.1 nM |
| CC(C)(C)[C@@H](N)C(=O)Nc1ccc(-c2ccnc3[nH]c(C(F)(F)F)cc23)cc1 [Compound F-56, (2R)-2-Amino-3,3-dimethyl-N-[4-[2-(trifluoromethyl)-1H-pyrrolo[2,3-b]pyridin-4-yl]phenyl]butanamide] | 108 nM |
| Cc1cc(NC(=O)[C@H](N)CC(C)(C)C)ccc1-c1ccnc2[nH]ccc12 [Compound F-60, (2R)-2-Amino-4,4-dimethyl-N-[3-methyl-4-(1H-pyrrolo[2,3-b]pyridin-4-yl)phenyl]pentanamide] | 7.8 nM |
| CC(C)(C)[C@@H](N)C(=O)Nc1ccc(-c2ccnc3[nH]ccc23)c(F)c1 [Compound F-66, (2R)-2-Amino-N-[3-fluoro-4-(1H-pyrrolo[2,3-b]pyridin-4-yl)phenyl]-3,3-dimethyl-butanamide] | 57.7 nM |
| CC(C)(C)[C@@H](N)C(=O)Nc1ccc(-c2ccnc3[nH]ccc23)cc1F [Compound F-71, (2R)-2-Amino-N-[2-fluoro-4-(1H-pyrrolo[2,3-b]pyridin-4-yl)phenyl]-3,3-dimethyl-butanamide] | 64.6 nM |
| Cc1c(-c2ccnc3[nH]ccc23)ccc(NC(=O)[C@H](N)CC(C)C)c1F [Compound F-72, (2R)-2-Amino-N-[2-fluoro-3-methyl-4-(1H-pyrrolo[2,3-b]pyridin-4-yl)phenyl]-4-methyl-pentanamide] | 17 nM |
| Cc1cc(NC(=O)[C@H](N)CC(C)C)c(F)cc1-c1ccnc2[nH]ccc12 [Compound F-73, (2R)-2-Amino-N-[2-fluoro-5-methyl-4-(1H-pyrrolo[2,3-b]pyridin-4-yl)phenyl]-4-methyl-pentanamide] | 694 nM |
| Cc1cc(NC(=O)[C@H](N)C(C)(C)C)c(F)cc1-c1ccnc2[nH]ccc12 [Compound F-74, (2R)-2-Amino-N-[2-fluoro-5-methyl-4-(1H-pyrrolo[2,3-b]pyridin-4-yl)phenyl]-3,3-dimethyl-butanamide] | 1060 nM |
| CC(C)C[C@@H](N)C(=O)Nc1ccc(-c2ccnc3[nH]ccc23)cc1C(F)(F)F [Compound F-76, (2R)-2-Amino-4-methyl-N-[4-(1H-pyrrolo[2,3-b]pyridin-4-yl)-2-(trifluoromethyl)phenyl]pentanamide] | 316 nM |
| CC(C)C[C@@H](N)C(=O)Nc1ccc(-c2ccnc3[nH]ccc23)c(OC(F)F)c1 [Compound F-82, (R)-2-Amino-N-(3-(difluoromethoxy)-4-(1H-pyrrolo[2,3-b]pyridin-4-yl)phenyl)-4-methylpentanamide] | 21.5 nM |
| CC(C)C[C@@H](N)C(=O)Nc1cccc(-c2ccnc3[nH]ccc23)c1 [Compound F-87, (2R)-2-Amino-4-methyl-N-[3-(1H-pyrrolo[2,3-b]pyridin-4-yl)phenyl]pentanamide] | 245 nM |
| CCc1cc(NC(=O)[C@H](N)C(C)(C)C)ccc1-c1ccnc2[nH]ccc12 [Compound F-88, (2R)-2-Amino-N-[3-ethyl-4-(1H-pyrrolo[2,3-b]pyridin-4-yl)phenyl]-3,3-dimethyl-butanamide] | 57.5 nM |
| Cc1cc2c(-c3ccc(NC(=O)[C@H](N)C(C)(C)C)cc3C)ccnc2[nH]1 [Compound F-91, (2R)-2-Amino-3,3-dimethyl-N-[3-methyl-4-(2-methyl-1H-pyrrolo[2,3-b]pyridin-4-yl)phenyl]butanamide] | 48.8 nM |
| Cc1cc2c(-c3ccc(NC(=O)[C@H](N)Cc4ccccc4)cc3)ccnc2[nH]1 [Compound F-92, (2R)-2-Amino-N-[4-(2-methyl-1H-pyrrolo[2,3-b]pyridin-4-yl)phenyl]-3-phenyl-propanamide] | 415 nM |
